Experimental findings from patent US20230393140A1, “BINDING ASSAYS INVOLVING A PLURALITY OF SYNTHETIC COMPOUNDS, TARGETS, AND COUNTER TARGETS” (SRI International, priority 2020, published 2023) are described below.

Numbered stars: 1 amine (or outer) side, 2 acyl side, 3 side chain; on linkers, the order of the positions; unused ones are H or OH. Square brackets hold non-standard residues; d marks the D form. Peptide text beside a SMILES is read from it. * marks the point of attachment. 5FAM = O=C1OC2(c3ccc(O)cc3Oc3cc(O)ccc32)c2ccc(C(=O)*)cc21; NHCH2C6H4(4-CH2CONH2) = NC(=O)Cc1ccc(CN*)cc1; X1 = O=C(Cc1ccc(CN[*:1])cc1)[*:2]

The target in the test is T1, K-Ras (Homo sapiens, UniProt P01116, G12V).
T1 construct: purchased Cytoskeleton Inc. CS-RS04
The test is described as follows: MST binding affinity of resynthesized NNP hits to K-Ras. The settings on record: read-out: KD (nM) [95% conf. int]; MST; NNP1 library hit; target K-Ras; one-site binding model. As to the method: Loading was performed according to the following protocol: The 200 μM stock solution of the target protein was diluted to 10 μM in 20 mM HEPES pH 8.0, 150 mM NaCl, 10 mM MgCl2, 1 mM TCEP, 0.05% Tween-20 (total volume 110 μL). 10 μL were set aside for later labeling quality control. EDTA pH 8.0 (stock concentration 10 mM) was added to the protein solution to a final concentration of 80 μM. GTP (stock concentration 50 mM) was added to the protein solution to a final concentration of 750 μM. The solution was incubated at 30° C. for 2 hours (PCR tube) and then placed on ice for 2 minutes. MgCl2 was added to the protein solution to a final concentration of 100 mM. The resulting protein solution was buffer exchanged into the buffer required in the labeling kit for labeling. […] All the other target molecules (TNFα, IL-6, IL-6R and ASGPR) were used as received without any additional treatment.
Hit binding affinity to various targets were determined using Microscale Thermophoresis (MST). MST experiments were performed on a Monolith NT.115pico (NanoTemper Technologies GmbH, Munich, Germany). Measurements were performed at room temperature, in triplicate with incubation periods of 15, 30 and 45 minutes. […] Targets were labeled using Nanotemper Monolith 2nd Generation Protein Labeling Kits. RED-MALEIMIDE (Maleimide-647-dye) labeling kit was used for K-Ras and RED-NHS (NHS-647-dye) labeling kit was used for IL-6, IL-6R, TNFα and ASGPR. The buffer for the ASGPR contained 20 mM HEPES pH 7.4, 150 mM NaCl, 10 mM MgCl2, 2 mM CaCl2, 0.05% Pluronic F-127, and 1 mM DTT; for IL-6 contained 20 mM HEPES pH 7.4, 150 mM KCl, 10 mM MgCl2, and 0.1% Pluronic F-127; for the soluble IL-6 receptor 20 mM HEPES pH 7.4, 150 mM NaCl, 10 mM MgCl2, and 0.05% Tween-20; for K-Ras 20 mM HEPES pH 7.4, 150 mM NaCl, 10 mM MgCl2, 0.05% Tween-20 and 1 mM DTT; for TNFα 10 mM HEPES pH 7.4, 150 mM NaCl, 10 mM MgCl2, 0.05% Polysorbate-20. Triplicate data was analyzed using MO.AffinityAnalysis software (NanoTemper Technologies GmbH).

As for `CC(C)C[C@H](NC(=O)[C@@H](CCCNC(=N)N)NC(=O)[C@@H](CCCCN)NC(=O)[C@@H](CCC(=O)O)NC(=O)[C@@H](Cc1ccccc1)NC(=O)Cc1ccc(CNC(=O)[C@@H](NC(=O)[C@@H](Cc2ccc(O)cc2)NC(=O)[C@@H](Cc2c[nH]cn2)NC(=O)[C@H]2CCCN2C(=O)[C@@H](Cc2c[nH]c3ccccc23)NC(=O)c2ccc3c(c2)C(=O)OC32c3ccc(O)cc3Oc3cc(O)ccc32)C(C)C)cc1)C(=O)NCc1ccc(CC(=O)N2CCC[C@@H]2C(=O)N[C@H](CO)C(=O)N[C@H](CCC(=O)O)C(=O)N[C@H](CCCNC(=N)N)C(=O)NCC(=O)NCc2ccc(CC(=O)N3CCC[C@@H]3C(=O)N[C@H](CCCCN)C(=O)N[C@H](Cc3ccc(O)cc3)C(=O)N[C@H](CCCNC(=N)N)C(=O)N[C@@H](Cc3ccccc3)C(=O)NCc3ccc(CC(=O)N4CCC[C@@H]4C(=O)NCC(=O)N[C@H](CCCNC(=N)N)C(=O)N[C@H](Cc4c[nH]c5ccccc45)C(=O)NCC(=O)NCc4ccc(CC(=O)N[C@H](Cc5c[nH]cn5)C(=O)N[C@H](Cc5ccc(O)cc5)C(=O)N[C@H](CO)C(=O)N[C@H](CCC(=O)O)C(=O)N[C@@H](Cc5ccccc5)C(=O)NCc5ccc(CC(N)=O)cc5)cc4)cc3)cc2)cc1` [KRAS-1-15] (5FAM-[dW][dP][dH][dY]V[X1][dF][dE][dK][dR]L[X1][dP][dS][dE][dR]G[X1][dP][dK][dY][dR]F[X1][dP]G[dR][dW]G[X1][dH][dY][dS][dE]F-{NHCH2C6H4(4-CH2CONH2)}), the Kd (usually the free concentration of one partner at which half of the binding sites on the other are occupied at equilibrium, for simple one-to-one binding) came out at 180 nM.

As to `CC(C)C[C@H](NC(=O)[C@@H](CCC(=O)O)NC(=O)[C@H](NC(=O)[C@H]1CCCN1C(=O)[C@@H](CCC(=O)O)NC(=O)c1ccc2c(c1)C(=O)OC21c2ccc(O)cc2Oc2cc(O)ccc21)[C@H](C)O)C(=O)NCc1ccc(CC(=O)NCC(=O)N[C@@H](C(=O)N2CCC[C@@H]2C(=O)N[C@H](CCCNC(=N)N)C(=O)N[C@@H](C)C(=O)NCc2ccc(CC(=O)N3CCC[C@@H]3C(=O)N[C@H](CO)C(=O)N[C@H](CCC(=O)O)C(=O)N[C@H](CCCNC(=N)N)C(=O)NCC(=O)NCc3ccc(CC(=O)N4CCC[C@@H]4C(=O)N[C@H](CCCCN)C(=O)N[C@H](Cc4ccc(O)cc4)C(=O)N[C@H](CCCNC(=N)N)C(=O)N[C@@H](Cc4ccccc4)C(=O)NCc4ccc(CC(=O)N[C@H](CCCNC(=N)N)C(=O)N[C@H](Cc5ccc(O)cc5)C(=O)N[C@@H](C(=O)N[C@H](CCC(=O)O)C(=O)N[C@@H](C)C(=O)NCc5ccc(CC(=O)NCC(=O)N[C@H](Cc6c[nH]c7ccccc67)C(=O)N[C@H](Cc6c[nH]cn6)C(=O)N[C@H](CCCNC(=N)N)C(=O)N[C@@H](C)C(=O)NCc6ccc(CC(N)=O)cc6)cc5)[C@H](C)O)cc4)cc3)cc2)C(C)C)cc1` [KRAS-1-10] (5FAM-[dE][dP][dT][dE]L[X1]G[dV][dP][dR]A[X1][dP][dS][dE][dR]G[X1][dP][dK][dY][dR]F[X1][dR][dY][dT][dE]A[X1]G[dW][dH][dR]A-{NHCH2C6H4(4-CH2CONH2)}), the Kd is 60 nM.

With `CC(C)C[C@@H](NC(=O)c1ccc2c(c1)C(=O)OC21c2ccc(O)cc2Oc2cc(O)ccc21)C(=O)N1CCC[C@@H]1C(=O)N[C@H](CCC(=O)O)C(=O)N[C@H](CO)C(=O)N[C@@H](Cc1ccccc1)C(=O)NCc1ccc(CC(=O)NCC(=O)N[C@@H](C(=O)N2CCC[C@@H]2C(=O)N[C@H](CCCNC(=N)N)C(=O)N[C@@H](C)C(=O)NCc2ccc(CC(=O)N3CCC[C@@H]3C(=O)N[C@H](CO)C(=O)N[C@H](CCC(=O)O)C(=O)N[C@H](CCCNC(=N)N)C(=O)NCC(=O)NCc3ccc(CC(=O)N4CCC[C@@H]4C(=O)N[C@H](CCCCN)C(=O)N[C@H](Cc4ccc(O)cc4)C(=O)N[C@H](CCCNC(=N)N)C(=O)N[C@@H](Cc4ccccc4)C(=O)NCc4ccc(CC(=O)N[C@H](CCCNC(=N)N)C(=O)N[C@H](Cc5ccc(O)cc5)C(=O)N[C@@H](C(=O)N[C@H](CCC(=O)O)C(=O)N[C@@H](C)C(=O)NCc5ccc(CC(=O)NCC(=O)N[C@H](Cc6c[nH]c7ccccc67)C(=O)N[C@H](Cc6c[nH]cn6)C(=O)N[C@H](CCCNC(=N)N)C(=O)N[C@@H](C)C(=O)NCc6ccc(CC(N)=O)cc6)cc5)[C@H](C)O)cc4)cc3)cc2)C(C)C)cc1` [KRAS-1-3] (5FAM-[dL][dP][dE][dS]F[X1]G[dV][dP][dR]A[X1][dP][dS][dE][dR]G[X1][dP][dK][dY][dR]F[X1][dR][dY][dT][dE]A[X1]G[dW][dH][dR]A-{NHCH2C6H4(4-CH2CONH2)}), the Kd came to 18 nM.

As for `CC(C)[C@H](NC(=O)[C@@H](Cc1c[nH]c2ccccc12)NC(=O)[C@H]1CCCN1C(=O)[C@@H](Cc1c[nH]cn1)NC(=O)[C@@H](Cc1ccc(O)cc1)NC(=O)c1ccc2c(c1)C(=O)OC21c2ccc(O)cc2Oc2cc(O)ccc21)C(=O)NCc1ccc(CC(=O)NCC(=O)N[C@H](CCCCN)C(=O)N[C@H](Cc2c[nH]cn2)C(=O)N[C@H](CC(N)=O)C(=O)N[C@@H](Cc2ccccc2)C(=O)NCc2ccc(CC(=O)N3CCC[C@@H]3C(=O)N[C@H](CO)C(=O)N[C@H](CCC(=O)O)C(=O)N[C@H](CCCNC(=N)N)C(=O)NCC(=O)NCc3ccc(CC(=O)N4CCC[C@@H]4C(=O)N[C@H](CCCCN)C(=O)N[C@H](Cc4ccc(O)cc4)C(=O)N[C@H](CCCNC(=N)N)C(=O)N[C@@H](Cc4ccccc4)C(=O)NCc4ccc(CC(=O)N5CCC[C@@H]5C(=O)NCC(=O)N[C@H](CCCNC(=N)N)C(=O)N[C@H](Cc5c[nH]c6ccccc56)C(=O)NCC(=O)NCc5ccc(CC(=O)N[C@H](Cc6ccc(O)cc6)C(=O)N6CCC[C@@H]6C(=O)N[C@H](CCCNC(=N)N)C(=O)N[C@H](CCC(=O)O)C(=O)NCC(=O)NCc6ccc(CC(N)=O)cc6)cc5)cc4)cc3)cc2)cc1` [KRAS-1-11] (5FAM-[dY][dH][dP][dW]V[X1]G[dK][dH][dN]F[X1][dP][dS][dE][dR]G[X1][dP][dK][dY][dR]F[X1][dP]G[dR][dW]G[X1][dY][dP][dR][dE]G-{NHCH2C6H4(4-CH2CONH2)}), the Kd stood at 60 nM.
